Consider 20 compounds from patent publication US9682965B2, “Fumagillol heterocyclic compounds and methods of making and using same” (Zafgen, Inc., priority 2015, dated 2017).

The test deals with Diet Induced Obese (DIO) C57BL/6 mice. The test can be described thus: 10 day DIO mouse model (body weight, food intake, hematology, blood chemistry). The note with it: 240 h; DIO mouse, 0.3 mpk sc, once a day for 10 days; read-out: DIO Mouse 10-day weight loss vs vehicle. The format is in vivo. From the text:
The objective of this study design was to investigate the efficacy of disclosed compounds in a 10 day DIO mouse model. Effects on body weight, food intake, hematology and blood chemistry were the primary readouts of this study design. […] Mice were fed Research Diets D12492 (60% Kcal fat, 20% Kcal carbohydrate and 20% protein) and provided water ad libitum. DIO mice were received and housed in the facility for approximately two weeks prior to the start of test article administration. On Day −4 or −3, mice were randomized into study groups based on body weight and body weights were continued to be recorded daily for the duration of the study. Daily food intake was assessed starting on Study Day −2 by weighing of the food with hopper together to avoid loss of food in transfer.
Compounds were formulated into a 100% DMSO stock (at 9 mg/mL) prior to the start, and further diluted into the target working concentration using the vehicle of 10% DMSO in water. Prior to test article administration, starting on Day −3 a dosing acclimation occured with all animals receiving a subcutaneous injection of vehicle (10% DMSO) only for 3 days. Starting on Day 1, test compounds or vehicle were administered based on individual body weight, subcutaneously, once a day for 10 days. All mice were sacrificed on Day 11, 24 hours following the final dosing on Day 10. After sacrifice, whole blood was collected and analyzed for hematology and blood chemistry parameters.
Compounds were tested vs. vehicle at various doses (1.0, 0.5, 0.3, 0.1, 0.03 mpk sc (mg per kg animal weight delivered subcutaneously), and the results are shown in Table 2 below.

Counter-ions that a name gives are not always drawn.

Take `CO[C@@H]1[C@H](OC(=O)N2CC(CCN3CC(C)(C(=O)N(C)C)C3)C2)CC[C@]2(CO2)[C@H]1[C@@]1(C)O[C@@H]1CC=C(C)C` [Example 20, (3R,4S,5S,6R)-5-methoxy-4-((2R,3R)-2-methyl-3-(3-methylbut-2-enyl)oxiran-2-yl)-1-oxaspiro[2.5]octan-6-yl 3-(2-(3-(dimethylcarbamoyl)-3-methylazetidin-1-yl)ethyl)azetidine-1-carboxylate]: the inhibition in vivo at 0.3 mg/kg came to 2.1%. The value for `CO[C@H]1CCN(CCC2CN(C(=O)O[C@@H]3CC[C@]4(CO4)[C@@H]([C@@]4(C)O[C@@H]4CC=C(C)C)[C@@H]3OC)C2)C1` [Example 25, (3R,4S,5S,6R)-5-methoxy-4-((2R,3R)-2-methyl-3-(3-methylbut-2-enyl)oxiran-2-yl)-1-oxaspiro[2.5]octan-6-yl 3-(2-((S)-3-methoxypyrrolidin-1-yl)ethyl)azetidine-1-carboxylate] was 4.8%; that for `CO[C@@H]1CCN(CCC2CN(C(=O)O[C@@H]3CC[C@]4(CO4)[C@@H]([C@@]4(C)O[C@@H]4CC=C(C)C)[C@@H]3OC)C2)C1` [Example 26, (3R,4S,5S,6R)-5-methoxy-4-((2R,3R)-2-methyl-3-(3-methylbut-2-enyl)oxiran-2-yl)-1-oxaspiro[2.5]octan-6-yl 3-(2-((R)-3-methoxypyrrolidin-1-yl)ethyl)azetidine-1-carboxylate] was 4.1%. On to `CO[C@@H]1[C@H](OC(=O)N2CC(CCN3CC[C@@H](F)C3)C2)CC[C@]2(CO2)[C@H]1[C@@]1(C)O[C@@H]1CC=C(C)C` [Example 27, (3R,4S,5S,6R)-5-methoxy-4-((2R,3R)-2-methyl-3-(3-methylbut-2-enyl)oxiran-2-yl)-1-oxaspiro[2.5]octan-6-yl 3-(2-((R)-3-fluoropyrrolidin-1-yl)ethyl)azetidine-1-carboxylate], for which the inhibition in vivo at 0.3 mg/kg was determined as 13.3%.

In the case of `CO[C@@H]1[C@H](OC(=O)N2CC(CCN3CC[C@H](F)C3)C2)CC[C@]2(CO2)[C@H]1[C@@]1(C)O[C@@H]1CC=C(C)C` [Example 28, (3R,4S,5S,6R)-5-methoxy-4-((2R,3R)-2-methyl-3-(3-methylbut-2-enyl)oxiran-2-yl)-1-oxaspiro[2.5]octan-6-yl 3-(2-((S)-3-fluoropyrrolidin-1-yl)ethyl)azetidine-1-carboxylate], the inhibition in vivo at 0.3 mg/kg came to 12.7%.

In the case of `CO[C@@H]1[C@H](OC(=O)N2CC(CCN3CCC(C)(C#N)CC3)C2)CC[C@]2(CO2)[C@H]1[C@@]1(C)O[C@@H]1CC=C(C)C` [Example 29, (3R,4S,5S,6R)-5-methoxy-4-((2R,3R)-2-methyl-3-(3-methylbut-2-enyl)oxiran-2-yl)-1-oxaspiro[2.5]octan-6-yl 3-(2-(4-cyano-4-methylpiperidin-1-yl)ethyl)azetidine-1-carboxylate], the inhibition in vivo at 0.3 mg/kg stood at 10.7%. For `CO[C@@H]1[C@H](OC(=O)N2CC(CCN3CCC(F)CC3)C2)CC[C@]2(CO2)[C@H]1[C@@]1(C)O[C@@H]1CC=C(C)C` [Example 30, (3R,4S,5S,6R)-5-methoxy-4-((2R,3R)-2-methyl-3-(3-methylbut-2-enyl)oxiran-2-yl)-1-oxaspiro[2.5]octan-6-yl 3-(2-(4-fluoropiperidin-1-yl)ethyl)azetidine-1-carboxylate], the inhibition in vivo at 0.3 mg/kg stood at 9.1%. Turning to `CO[C@@H]1[C@H](OC(=O)N2CC(CCN3[C@@H]4CC[C@H]3COC4)C2)CC[C@]2(CO2)[C@H]1[C@@]1(C)O[C@@H]1CC=C(C)C` [Example 31, (3R,4S,5S,6R)-5-methoxy-4-((2R,3R)-2-methyl-3-(3-methylbut-2-enyl)oxiran-2-yl)-1-oxaspiro[2.5]octan-6-yl 3-(2-((1R,5S)-3-oxa-8-azabicyclo[3.2.1]octan-8-yl)ethyl)azetidine-1-carboxylate], the inhibition in vivo at 0.3 mg/kg came to 4.2%. The value for `CO[C@@H]1[C@H](OC(=O)N2CC(CCN3C4CCC3CC4)C2)CC[C@]2(CO2)[C@H]1[C@@]1(C)O[C@@H]1CC=C(C)C` [Example 32, (3R,4S,5S,6R)-5-methoxy-4-((2R,3R)-2-methyl-3-(3-methylbut-2-enyl)oxiran-2-yl)-1-oxaspiro[2.5]octan-6-yl 3-(2-((1S,4S)-7-azabicyclo[2.2.1]heptan-7-yl)ethyl)azetidine-1-carboxylate] was 0.5%. The value for `CO[C@@H]1[C@H](OC(=O)N2CC(CCN3CCN(CC(F)F)CC3=O)C2)CC[C@]2(CO2)[C@H]1[C@@]1(C)O[C@@H]1CC=C(C)C` [Example 35, (3R,4S,5S,6R)-5-methoxy-4-((2R,3R)-2-methyl-3-(3-methylbut-2-enyl)oxiran-2-yl)-1-oxaspiro[2.5]octan-6-yl 3-(2-(4-(2,2-difluoroethyl)-2-oxopiperazin-1-yl)ethyl)azetidine-1-carboxylate] was 21.3%.

With `CO[C@@H]1[C@H](OC(=O)N2CC(CCN3CCC(C#N)(C#N)CC3)C2)CC[C@]2(CO2)[C@H]1[C@@]1(C)O[C@@H]1CC=C(C)C` [Example 36, (3R,4S,5S,6R)-5-methoxy-4-((2R,3R)-2-methyl-3-(3-methylbut-2-enyl)oxiran-2-yl)-1-oxaspiro[2.5]octan-6-yl 3-(2-(4,4-dicyanopiperidin-1-yl)ethyl)azetidine-1-carboxylate], the inhibition in vivo at 0.3 mg/kg came to 11.2%. As for `CCN(CC)C[C@H]1CCN(C(=O)O[C@@H]2CC[C@]3(CO3)[C@@H]([C@@]3(C)O[C@@H]3CC=C(C)C)[C@@H]2OC)C1` [Example 38, (R)-((3R,4S,5S,6R)-5-methoxy-4-((2R,3R)-2-methyl-3-(3-methylbut-2-enyl)oxiran-2-yl)-1-oxaspiro[2.5]octan-6-yl) 3-((diethylamino)methyl)pyrrolidine-1-carboxylate formate], the inhibition in vivo at 0.3 mg/kg was 6.7%. As to `CO[C@@H]1[C@H](OC(=O)N2CC(CCN3CCOCC3=O)C2)CC[C@]2(CO2)[C@H]1[C@@]1(C)O[C@@H]1CC=C(C)C` [Example 39, (3R,4S,5S,6R)-5-methoxy-4-((2R,3R)-2-methyl-3-(3-methylbut-2-enyl)oxiran-2-yl)-1-oxaspiro[2.5]octan-6-yl 3-(2-(3-oxomorpholino)ethyl)azetidine-1-carboxylate], the inhibition in vivo at 0.3 mg/kg was 1.7%. As to `CO[C@@H]1[C@H](OC(=O)N2CC[C@H]2CN2CCCC2)CC[C@]2(CO2)[C@H]1[C@@]1(C)O[C@@H]1CC=C(C)C` [Example 41, (S)-((3R,4S,5S,6R)-5-methoxy-4-((2R,3R)-2-methyl-3-(3-methylbut-2-enyl)oxiran-2-yl)-1-oxaspiro[2.5]octan-6-yl) 2-(pyrrolidin-1-ylmethyl)azetidine-1-carboxylate formate], the inhibition in vivo at 0.3 mg/kg worked out at 4.4%. The value for `CO[C@@H]1[C@H](OC(=O)N2CC[C@@H]2CN2CCCC2)CC[C@]2(CO2)[C@H]1[C@@]1(C)O[C@@H]1CC=C(C)C` [Example 42, (R)-((3R,4S,5S,6R)-5-methoxy-4-((2R,3R)-2-methyl-3-(3-methylbut-2-enyl)oxiran-2-yl)-1-oxaspiro[2.5]octan-6-yl) 2-(pyrrolidin-1-ylmethyl)azetidine-1-carboxylate formate] was 5.3%; that for `CCN(CC)CC1CN(C(=O)O[C@@H]2CC[C@]3(CO3)[C@@H]([C@@]3(C)O[C@@H]3CC=C(C)C)[C@@H]2OC)CCO1` (stereo partly drawn) [Example 44, (3R,4S,5S,6R)-5-methoxy-4-((2R,3R)-2-methyl-3-(3-methylbut-2-enyl)oxiran-2-yl)-1-oxaspiro[2.5]octan-6-yl 2-((diethylamino)methyl)morpholine-4-carboxylate formate] was 2.1%; that for `CO[C@@H]1[C@H](OC(=O)N2CC(CCN3CC[C@H](O)C3)C2)CC[C@]2(CO2)[C@H]1[C@@]1(C)O[C@@H]1CC=C(C)C` [Example 46, (3R,4S,5S,6R)-5-methoxy-4-((2R,3R)-2-methyl-3-(3-methylbut-2-enyl)oxiran-2-yl)-1-oxaspiro[2.5]octan-6-yl 3-(2-((S)-3-hydroxypyrrolidin-1-yl)ethyl)azetidine-1-carboxylate formate] was 5.2%. The value for `CO[C@@H]1[C@H](OC(=O)N2CC(CCN3CC[C@@H](O)C3)C2)CC[C@]2(CO2)[C@H]1[C@@]1(C)O[C@@H]1CC=C(C)C` [Example 47, (3R,4S,5S,6R)-5-methoxy-4-((2R,3R)-2-methyl-3-(3-methylbut-2-enyl)oxiran-2-yl)-1-oxaspiro[2.5]octan-6-yl 3-(2-((R)-3-hydroxypyrrolidin-1-yl)ethyl)azetidine-1-carboxylate] was 5.6%; that for `CCN(CC)CC[C@H]1CCCN1C(=O)O[C@@H]1CC[C@]2(CO2)[C@@H]([C@@]2(C)O[C@@H]2CC=C(C)C)[C@@H]1OC` [Example 50, (R)-((3R,4S,5S,6R)-5-methoxy-4-((2R,3R)-2-methyl-3-(3-methylbut-2-enyl)oxiran-2-yl)-1-oxaspiro[2.5]octan-6-yl) 2-(2-(diethylamino)ethyl)pyrrolidine-1-carboxylate formate] was 2.6%.

Consider `CCN(CC)CC[C@@H]1CCCN1C(=O)O[C@@H]1CC[C@]2(CO2)[C@@H]([C@@]2(C)O[C@@H]2CC=C(C)C)[C@@H]1OC` [Example 51, (S)-((3R,4S,5S,6R)-5-methoxy-4-((2R,3R)-2-methyl-3-(3-methylbut-2-enyl)oxiran-2-yl)-1-oxaspiro[2.5]octan-6-yl) 2-(2-(diethylamino)ethyl)pyrrolidine-1-carboxylate formate], for which the inhibition in vivo at 0.3 mg/kg amounted to 4.3%.
